Broadly, the IC50 is the point on the concentration scale where inhibition reaches its midpoint.

The target in one test is T1, Aurora A (Homo sapiens, UniProt O14965).
T1 construct: C-terminally Histidine4 (His4)-tagged Aurora A full-length protein
T1 sequence (O14965 1-403): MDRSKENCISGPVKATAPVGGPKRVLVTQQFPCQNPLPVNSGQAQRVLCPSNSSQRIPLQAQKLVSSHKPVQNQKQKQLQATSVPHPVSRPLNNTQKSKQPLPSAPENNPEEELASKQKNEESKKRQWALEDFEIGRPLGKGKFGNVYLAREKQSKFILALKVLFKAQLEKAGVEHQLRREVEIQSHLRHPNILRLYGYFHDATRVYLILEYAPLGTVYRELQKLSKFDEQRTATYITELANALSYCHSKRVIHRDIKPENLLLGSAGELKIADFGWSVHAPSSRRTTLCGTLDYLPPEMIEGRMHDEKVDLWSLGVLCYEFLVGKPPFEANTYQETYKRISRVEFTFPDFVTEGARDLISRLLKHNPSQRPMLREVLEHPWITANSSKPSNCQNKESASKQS
Description: IC50 determination for inhibitors of Aurora A (96 MTP-ELISA). It is filed as biochemical. The conditions noted are these: His4-tagged full-length Aurora A 250 ng/ml, PKB-GSK2 200 nM, ATP 4 μM, 90 min at room temperature, read-out: IC50 Aurora A kinase inhibition. The method, then:
IC50 Determination for Inhibitors of Aurora A
• Aurora A is a serine threonine kinase involved in spindle assembly and chromosome segregation.
The assay is a typically ELISA-type assay where biotinylated substrate (PKB-GSK2) is phosphorylated. Phosphorylation is detected by peroxidase (POD) labelled polyclonal antibody (PAK<M-Ig>S-IgG-POD) and phosphopeptide monoclonal antibody (Mab) (MAK<P-GSK>M-27E5-IgG). The assay is validated for IC50-determination.
Method • This assay is performed in 96-well format for IC50 determination with 5 samples (each with 8 concentrations by twofold testing), 100 μl incubation volume and the following plate layout: […]
In the case of `COc1cccc(Cn2nc(Nc3cc(C)[nH]n3)c3ccccc3c2=O)c1` [Example A-12, 2-(3-Methoxy-benzyl)-4-(5-methyl-1H-pyrazol-3-ylamino)-2H-phthalazin-1-one], the IC50 lay within 1 to 100 nM.
For the compound `Cc1cc(Nc2nn(C(C)C)c(=O)c3ccc(CO)cc23)n[nH]1` [Example M-10, 6-Hydroxymethyl-2-isopropyl-4-(5-methyl-1H-pyrazol-3-ylamino)-2H-phthalazin-1-one], the IC50 was 100 to 1000 nM.
For the compound `Cc1cc(Nc2nn(C(C)C)c(=O)c3cc(N4CCN(C)CC4)ccc23)[nH]n1` [Example F-5, 2-Isopropyl-7-(4-methyl-piperazin-1-yl)-4-(5-methyl-2H-pyrazol-3-ylamino)-2H-phthalazin-1-one], the IC50 was 1 to 100 nM.
`COc1ccc2c(=O)n(C(C)C)nc(Nc3cc(C)[nH]n3)c2c1` [Example G-9, 2-Isopropyl-6-methoxy-4-(5-methyl-1H-pyrazol-3-ylamino)-2H-phthalazin-1-one]: the IC50 lay within 1 to 100 nM.

The test system of the next test is HCT 116 cells. Description: CellTiter-Glo assay in HCT 116 cells. The test is classed as cell-based, human. The following applies: 5 days incubation, 30 μM to 0.0015 μM. From the text:
CellTiter-Glo™ Assay in HCT 116 Cells
The CellTiter-Glo™ Luminescent Cell Viability Assay (Promega) is a homogeneous method of determining the number of viable cells in culture based on quantitation of the ATP present, which signals the presence of metabolically active cells.
HCT 116 cells (human colon carcinoma, ATCC-No. CCl-247) were cultivated in RPMI 1640 medium with GlutaMAX™ I (Invitrogen, Cat-No. 61870-010), 2.5% Fetal Calf Serum (FCS, Sigma Cat-No. F4135 (FBS)); 100 Units/ml penicillin/100 μg/ml streptomycin (=Pen/Strep from Invitrogen Cat. No. 15140). For the assay the cells were seeded in 384 well plates, 1000 cells per well, in the same medium. The next day the test compounds were added in various concentrations ranging from 30 μM to 0.0015 μM (10 concentrations, 1:3 diluted). After 5 days the CellTiter-Glo™ assay was done according to the instructions of the manufacturer (CellTiter-Glo™ Luminescent Cell Viability Assay, from Promega). In brief: the cell-plate was equilibrated to room temperature for approximately 30 minutes and than the CellTiter-Glo™ reagent was added. The contents were carefully mixed for 15 minutes to induce cell lysis. After 45 minutes the luminescent signal was measured in Victor 2, (scanning multiwell spectrophotometer, Wallac).
1st. Day: • Medium: RPMI 1640 with GlutaMAX™ I (Invitrogen, Cat-Nr. 61870), 5% FCS (Sigma Cat.-No. F4135), Pen/Strep (Invitrogen, Cat No. 15140). • HCT116 (ATCC-No. CCl-247): 1000 cells in 60 μl per well of 384 well plate (Greiner 781098, μClear-plate white) • After seeding incubate plates 24 h at 37° C., 5% CO2
2nd. Day: Induction (Treatment with Compounds, 10 Concentrations):
In order to achieve a final concentration of 30 μM as highest concentration 3.5 μl of 10 mM compound stock solution were added directly to 163 μl media. Then step e) of the dilution procedure described below, was followed.
For the compound `Cc1cc(Nc2nn(-c3ccccc3)c(=O)c3ccccc23)[nH]n1` [Example A-1, 4-(5-Methyl-2H-pyrazole-3-ylamino)-phenyl-2H-phthalazin-1-one], the half-inhibitory concentration (IC50) turned out to be 1.66 µM.

Still in this test, the particulars now being: Homo sapiens, HCT-116, 120 h, 5 days incubation, 30 μM to 0.0015 μM.
For the compound `COc1cccc(Cn2nc(Nc3cc(C)[nH]n3)c3ccccc3c2=O)c1` [Example A-12, 2-(3-Methoxy-benzyl)-4-(5-methyl-1H-pyrazol-3-ylamino)-2H-phthalazin-1-one], the IC50 was in the range of 0.1 to 10 µM.
For the compound `Cc1cc(Nc2nn(Cc3cc(F)ccc3F)c(=O)c3ccccc23)n[nH]1` [Example A-13, 2-(2,5-Difluoro-benzyl)-4-(5-methyl-1H-pyrazol-3-ylamino)-2H-phthalazin-1-one], the IC50 is 0.1 to 10 µM.
As for `Cc1cc(Nc2nn(C(C)C)c(=O)c3ccc(CO)cc23)n[nH]1` [Example M-10, 6-Hydroxymethyl-2-isopropyl-4-(5-methyl-1H-pyrazol-3-ylamino)-2H-phthalazin-1-one], the IC50 fell in the range of 0.1 to 10 µM.
The compound `Cc1cc(Nc2nn(C(C)C)c(=O)c3cc(N4CCN(C)CC4)ccc23)[nH]n1` [Example F-5, 2-Isopropyl-7-(4-methyl-piperazin-1-yl)-4-(5-methyl-2H-pyrazol-3-ylamino)-2H-phthalazin-1-one] showed an IC50 of 0.1 to 10 µM.
`COc1ccc2c(=O)n(C(C)C)nc(Nc3cc(C)[nH]n3)c2c1` [Example G-9, 2-Isopropyl-6-methoxy-4-(5-methyl-1H-pyrazol-3-ylamino)-2H-phthalazin-1-one] returned an IC50 of 0.1 to 10 µM.
With `Cc1cc(Nc2nn(CC3CC3)c(=O)c3ccccc23)n[nH]1` [Example E-11, 2-Cyclopropylmethyl-4-(5-methyl-1H-pyrazol-3-ylamino)-2H-phthalazin-1-one], the IC50 lay in the range of 0.1 to 10 µM.
For `Cc1cc(Nc2nn(-c3ccc([S+]([O-])c4ccccc4)cc3)c(=O)c3ccccc23)n[nH]1` (centres unmarked) [Example ZA-2, 2-(4-Benzenesulfinyl-phenyl)-4-(5-methyl-1H-pyrazol-3-ylamino)-2H-phthalazin-1-one], the IC50 is 0.1 to 10 µM.
Still for that read-out and setting: the same measure for `C=CCn1nc(Nc2cc(C)[nH]n2)c2ccccc2c1=O` [Example E-10, 2-Allyl-4-(5-methyl-1H-pyrazol-3-ylamino)-2H-phthalazin-1-one]: 0.1 to 10 µM.
Compound `COCC(=O)Nc1ccc(-n2nc(Nc3cc(C)[nH]n3)c3ccccc3c2=O)cc1` [Example T-2, 2-Methoxy-N-{4-[4-(5-methyl-1H-pyrazol-3-ylamino)-1-oxo-1H-phthalazin-2-yl]-phenyl}-acetamide] came in with an IC50 of 0.1 to 10 µM.
As for `Cc1cc(Nc2nn(C(C)C)c(=O)c3cc(SCCN4CCOCC4)ccc23)n[nH]1` [Example H-3, 2-Isopropyl-4-(5-methyl-1H-pyrazol-3-ylamino)-7-(2-morpholin-4-yl-ethylsulfanyl)-2H-phthalazin-1-one], the 50% inhibitory concentration (IC50) lay in the range of 0.1 to 10 µM.
The same measure, in the same setting: to `Cc1cc(Nc2nn(-c3ccc(N)cc3)c(=O)c3ccccc23)n[nH]1` [Example C-2, 2-(4-Amino-phenyl)-4-(5-methyl-1H-pyrazol-3-ylamino)-2H-phthalazin-1-one] belongs 0.1 to 10 µM; to `Cc1cc(Nc2nn(-c3ccc(Cl)cc3)c(=O)c3ccccc23)n[nH]1` [Example B-1, 2-(4-Chloro-phenyl)-4-(5-methyl-1H-pyrazol-3-ylamino)-2H-phthalazin-1-one], 0.1 to 10 µM; to `CCOC(=O)N(C)c1ccc2c(Nc3cc(C)[nH]n3)nn(C(C)C)c(=O)c2c1` [Example I-7, [3-Isopropyl-1-(5-methyl-1H-pyrazol-3-ylamino)-4-oxo-3,4-dihydro-phthalazin-6-yl]-methyl-carbamic acid ethyl ester], 0.1 to 10 µM.
In turn, `Cc1cc(Nc2nn(CC(C)C)c(=O)c3ccccc23)n[nH]1` [Example A-4, 2-Isobutyl-4-(5-methyl-1H-pyrazol-3-ylamino)-2H-phthalazin-1-one] came in with an IC50 of 0.1 to 10 µM.
Compound `Cc1cc(Nc2nn(-c3ccc(N4CCCC4)cc3)c(=O)c3ccccc23)n[nH]1` [Example U-3, 4-(5-Methyl-1H-pyrazol-3-ylamino)-2-(4-pyrrolidin-1-yl-phenyl)-2H-phthalazin-1-one] returned an IC50 of 0.1 to 10 µM.
`Cc1cc(Nc2nn(-c3ccc(C(C)(C)C)cc3)c(=O)c3cc(N)ccc23)[nH]n1` [Example ZB-2, 7-Amino-2-(4-tert-butyl-phenyl)-4-(5-methyl-2H-pyrazol-3-ylamino)-2H-phthalazin-1-one] showed an IC50 of 0.1 to 10 µM.
The same measure, in the same setting: to `Cc1cc(Nc2nn(Cc3ccc(F)c(F)c3)c(=O)c3ccccc23)n[nH]1` [Example A-15, 2-(3,4-Difluoro-benzyl)-4-(5-methyl-1H-pyrazol-3-ylamino)-2H-phthalazin-1-one] belongs 0.1 to 10 µM; to `Cc1cc(Nc2nn(-c3ccc(C(C)(C)C)cc3)c(=O)c3ccc(Br)cc23)[nH]n1` [Example ZB-6, 6-Bromo-2-(4-tert-butyl-phenyl)-4-(5-methyl-2H-pyrazol-3-ylamino)-2H-phthalazin-1-one], 0.1 to 10 µM; to `CCOC(=O)N(C)c1ccc(-n2nc(Nc3cc(C)[nH]n3)c3ccccc3c2=O)cc1` [Example Y-3, Methyl-{4-[4-(5-methyl-1H-pyrazol-3-ylamino)-1-oxo-1H-phthalazin-2-yl]-phenyl}-carbamic acid ethyl ester], 0.1 to 10 µM.
`Cc1cc(Nc2nn(C(C)C)c(=O)c3cc(C(=O)NC(C)C)ccc23)n[nH]1` [Example M-5, 3-Isopropyl-1-(5-methyl-1H-pyrazol-3-ylamino)-4-oxo-3,4-dihydro-phthalazine-6-carboxylic acid isopropylamide] registered an IC50 of 0.1 to 10 µM.
`CSc1ccc(Cn2nc(Nc3cc(C)[nH]n3)c3ccccc3c2=O)cc1` [Example E-12, 4-(5-Methyl-1H-pyrazol-3-ylamino)-2-(4-methylsulfanyl-benzyl)-2H-phthalazin-1-one] gave an IC50 of 0.1 to 10 µM.
`Cc1cc(Nc2nn(C(C)C)c(=O)c3cc(NS(C)(=O)=O)ccc23)n[nH]1` [Example J-2, N-[3-Isopropyl-1-(5-methyl-1H-pyrazol-3-ylamino)-4-oxo-3,4-dihydro-phthalazin-6-yl]-methanesulfonamide] showed a concentration for half-maximal inhibition (IC50) of 0.1 to 10 µM.
The same measure, in the same setting: the same measure for `CCN(C(C)=O)c1ccc(-n2nc(Nc3cc(C)[nH]n3)c3ccccc3c2=O)cc1` [Example Y-1, N-Ethyl-N-{4-[4-(5-methyl-1H-pyrazol-3-ylamino)-1-oxo-1H-phthalazin-2-yl]-phenyl}-acetamide]: 0.1 to 10 µM; for `Cc1cc(Nc2nn(C(C)C)c(=O)c3ccc(F)cc23)n[nH]1` [Example E-3, 6-Fluoro-2-isopropyl-4-(5-methyl-1H-pyrazol-3-ylamino)-2H-phthalazin-1-one]: 0.1 to 10 µM; for `Cc1cc(Nc2nn(C(C)C)c(=O)c3ccc(N4CCOCC4)cc23)n[nH]1` [Example F-2, 2-Isopropyl-4-(5-methyl-1H-pyrazol-3-ylamino)-6-morpholino-2H-phthalazin-1-one]: 0.1 to 10 µM.
The compound `Cc1cc(Nc2nn(-c3ccc(-c4ccccc4)cc3)c(=O)c3ccccc23)n[nH]1` [Example Q-1, 2-Biphenyl-4-yl-4-(5-methyl-1H-pyrazol-3-ylamino)-2H-phthalazin-1-one] displayed an IC50 of 10 to 100 µM.
On to `Cc1cc(Nc2nn(C(C)C)c(=O)c3cc(N(C)S(C)(=O)=O)ccc23)n[nH]1` [Example I-10, N-[3-Isopropyl-1-(5-methyl-1H-pyrazol-3-ylamino)-4-oxo-3,4-dihydro-phthalazin-6-yl]-N-methyl-methanesulfonamide], for which the IC50 lay within 0.1 to 10 µM.

(Values after patent publication US7226923B2, “Phthalazinone derivatives” (Hoffman-La Roche Inc., priority 2004, dated 2007).)
